Experiments:
[1] = system: Single Olfactory Cells Responsive to Volatiles Emanating from a Crushed Cotton Square; assay: Single-cell electrophysiology: action potentials from single olfactory cells; assay type: cell-based, Anthonomus grandis; settings: volatiles emanating from 1 μg of odorant; cell responsive to crushed cotton square
Source text: Single-cell recording techniques are described in detail elswhere [Dickens, Mitt. Schweiz. Entomol. Ges. 52: 203 (1979); Dickens et al., J. Chem. Ecol. 10: 583 (1984)]. In brief, microelectrodes used for recordings were constructed from 50.8 μm diameter tungsten wire electrolytically sharpened to a tip of 1-2 μm. The recording electrode was positioned under optical control (150-200 X) with a Leitz high-power micromanipulator near either the base of one of the three sensory bands encircling the club, or the base of an individual sensillum just distal to each sensory band region. The ground electrode was inserted in either the rostrum or distal end of the scape. Action potentials were amplified and conditioned by a Grass P-15 preamplifier and Tektronix 5A22N amplifier prior to visualization on a Tektronix 5223 digitizing oscilloscope. The signal then passed through a Teac R51-D data recorder for recording on cassette tapes prior to visualization on a Tektronix 5111 analog oscilloscope. Data were photographed from the analog oscilloscope with a Tektronix C-5C oscilloscope camera. Trains of action potentials were counted visually.
Upon obtaining a single cell preparation, odorous stimuli were presented every 3 min. […] The first two stimuli tested were volatiles emanating from 1 μg of grandlure, followed by volatiles emanating from a crushed cotton square. These two stimuli served to determine whether the cell was activated by the attractive pheromone of the boll weevil and/or volatiles emanating from its food source.

Scolytus multistriatus = assay: Field test with bark beetles, 4-wk, Orono, Me.; assay type: in vivo
Protocol: Mean % trap captures were calculated from competitive field tests during a 4-wk test period on campus of the University of Maine, Orono, Me. Total number of S. multistriatus captured was 423. Multilure consisted of α-multistriatin, methyl heptanol, and cubebene as obtained commercially from Dewill Corp., Elmhurst, Ill. Both 1-hexanol and hexanal were released from cigarette filters after dilution in the […] described [McKibben, supra]. Mean weekly trap captures were compared by Duncan's multiple range test [Duncan, Biometrics 11: 1-42 (1955)].

In the case of `CC1=CC[C@H]2C[C@@H]1C2(C)C` [(-)-α-pinene, (−)-α-pinene], the “Response in impulses/initial 500 msec, Cell #1” value [1] is reported as 4 impulses/initial 500 msec, the “Response in impulses/initial 500 msec, Cell #2” value [1] is reported as 0 impulses/initial 500 msec and the “Response in impulses/initial 500 msec, Cell #3” value [1] is reported as 1 impulses/initial 500 msec. For the same molecule, the “Response in impulses/initial 500 msec, Cell #4” value [1] was 7 impulses/initial 500 msec.

`O=Cc1ccccc1` [benzaldehyde] was tested, and the “Response in impulses/initial 500 msec, Cell #1” value [1] was 3 impulses/initial 500 msec, the “Response in impulses/initial 500 msec, Cell #2” value [1] was 0 impulses/initial 500 msec and the “Response in impulses/initial 500 msec, Cell #3” value [1] was 1 impulses/initial 500 msec. The “Response in impulses/initial 500 msec, Cell #4” value [1] was 0 impulses/initial 500 msec.

In the case of `CC(C)=CCC[C@H](C)[C@@]1(O)CC=C(C)CC1` [β-bisabolol], the “Response in impulses/initial 500 msec, Cell #1” value [1] is reported as 3 impulses/initial 500 msec, the “Response in impulses/initial 500 msec, Cell #2” value [1] is reported as 3 impulses/initial 500 msec and the “Response in impulses/initial 500 msec, Cell #3” value [1] is reported as 5 impulses/initial 500 msec. For the same molecule, the “Response in impulses/initial 500 msec, Cell #4” value [1] was 2 impulses/initial 500 msec.

`CCCCCC=O` [hexanal] was tested, and the “Response in impulses/initial 500 msec, Cell #1” value [1] was 16 impulses/initial 500 msec, the “Response in impulses/initial 500 msec, Cell #2” value [1] was 13 impulses/initial 500 msec and the “Response in impulses/initial 500 msec, Cell #4” value [1] was 27 impulses/initial 500 msec. For the same molecule, the “captures of bark beetles in traps when released with multilure, relative to the pheromone alone” value (Scolytus multistriatus; 10 mg each) was “increased” and the “Mean % Trap Capture” value (Scolytus multistriatus; hexanal 10 mg, 1-hexanol 10 mg, multilure, alone or combined, 4-wk test period) was 0.3a %.

α-bisabolol was tested, and the “Response in impulses/initial 500 msec, Cell #1” value [1] was 3 impulses/initial 500 msec, the “Response in impulses/initial 500 msec, Cell #2” value [1] was 12 impulses/initial 500 msec and the “Response in impulses/initial 500 msec, Cell #3” value [1] was 3 impulses/initial 500 msec. The “Response in impulses/initial 500 msec, Cell #4” value [1] was 2 impulses/initial 500 msec.

`CC(C)=CCC/C(C)=C/CO` [geraniol] was tested, and the “Response in impulses/initial 500 msec, Cell #1” value [1] was 1 impulses/initial 500 msec, the “Response in impulses/initial 500 msec, Cell #2” value [1] was 3 impulses/initial 500 msec and the “Response in impulses/initial 500 msec, Cell #3” value [1] was 5 impulses/initial 500 msec. The “Response in impulses/initial 500 msec, Cell #4” value [1] was 0 impulses/initial 500 msec.

For gossonerol, the “Response in impulses/initial 500 msec, Cell #1” value [1] was 3 impulses/initial 500 msec and the “Response in impulses/initial 500 msec, Cell #4” value [1] was 12 impulses/initial 500 msec.

With (−)-limonene [(-)-limonene] the “Response in impulses/initial 500 msec, Cell #1” value [1] was 0 impulses/initial 500 msec, the “Response in impulses/initial 500 msec, Cell #2” value [1] was 0 impulses/initial 500 msec and the “Response in impulses/initial 500 msec, Cell #3” value [1] was 2 impulses/initial 500 msec. For the same molecule, the “Response in impulses/initial 500 msec, Cell #4” value [1] was 1 impulses/initial 500 msec.

With `C=CC(C)(O)CCC=C(C)C` (centres unmarked) [linalool] the “Response in impulses/initial 500 msec, Cell #1” value [1] was 3 impulses/initial 500 msec, the “Response in impulses/initial 500 msec, Cell #2” value [1] was 2 impulses/initial 500 msec and the “Response in impulses/initial 500 msec, Cell #3” value [1] was 1 impulses/initial 500 msec. The “Response in impulses/initial 500 msec, Cell #4” value [1] was 11 impulses/initial 500 msec.
